For 7 compounds, ED50 results are on record in US4562202A, “N-Acyl hexahydroindole-2-carboxylic acids and anti-hypertensive use thereof” (Hoechst Aktiengesellschaft, priority 1982, dated 1985).

The test system of this assay is pressor reaction induced by angiotensin I. Description: Inhibition of the pressor reaction induced by 310 ng of angiotensin I, intraduodenal administration to the anaesthetized rat. It is filed as in vivo. Particulars: 0.5 h, 310 ng angiotensin I, 30 min. after administration, read-out: ED50 (50% inhibition of the pressor reaction induced by 310 ng of angiotensin I 30 min. after administration). As for the experimental part: intraduodenal administration to the anaesthetized rat, 50% inhibition of the pressor reaction induced by 310 ng of angiotensin I 30 min. after administration in the dose . . . =ED50 : […]

Turning to `CCOC(=O)[C@H](CC(=O)c1ccccc1)N[C@@H](C)C(=O)N1[C@H](C(=O)O)C[C@@H]2CCC=C[C@@H]21` [N-(1S-carboethoxy-3-oxo-3-phenylpropyl)-S-alanyl-cis-2,3,3a,4,5,7a-hexahydro[1H]indole-2S-endocarboxylic acid], the ED50 worked out at 0.39 mg/kg. In the case of `CCOC(=O)[C@H](CC(=O)c1ccccc1)N[C@@H](C)C(=O)N1[C@@H]2C=CCC[C@@H]2C[C@H]1C(=O)O` [N-(1S-carboethoxy-3-oxophenylpropyl)-S-alanyl-cis-2,3,3a,4,5,7a-hexahydro[1H]indole-2S-exocarboxylic acid], the ED50 came out at 0.5 mg/kg. As to `CCOC(=O)[C@H](CCc1ccccc1)N[C@@H](C)C(=O)N1[C@H](C(=O)O)C[C@@H]2CCC=C[C@@H]21` [N-(1S-carboethoxy-3-phenylpropyl)-S-alanyl-cis-2,3,3a,4,5,7a-hexahydro [1H]indole-2S-endo-carboxylic acid], the ED50 came to 0.04 mg/kg.

In the case of `CCOC(=O)[C@H](CCc1ccccc1)N[C@@H](C)C(=O)N1C(C(=O)O)CC2CCC=CC21` (stereo partly drawn) [N-(1S-carboethoxy-3-phenylpropyl)-S-alanyl-cis-2,3,3a,4,5,7a-hexahydro[1H]indole-2R,S-endo-carboxylic acid], the ED50 worked out at 0.08 mg/kg.

Consider `CCOC(=O)[C@H](CCc1ccccc1)N[C@@H](C)C(=O)N1[C@@H]2C=CCC[C@@H]2C[C@H]1C(=O)O` [N-(1S-carboethoxy-3-phenylpropyl)-S-alanyl-cis-2,3,3a,4,5,7a-hexahydro[1H]indole-2S-exo-carboxylic acid], for which the ED50 was 0.07 mg/kg. `C[C@H](N[C@@H](CCc1ccccc1)C(=O)O)C(=O)N1[C@H](C(=O)O)C[C@@H]2CCC=C[C@@H]21` [N-(1S-carboxy-3-phenylpropyl)-S-alanyl-cis-2,3,3a,4,5,7a-hexahydro[1H]indole-2S-endo-carboxylic acid]: the ED50 was 0.6 mg/kg. Turning to `C[C@H](N[C@@H](CCc1ccccc1)C(=O)O)C(=O)N1[C@@H]2C=CCC[C@@H]2C[C@H]1C(=O)O` [N-(1S-carboxy-3-phenylpropyl)-S-alanyl-cis-2,3,3a,4,5,7a-hexahydro[1H]indole-2S-exo-carboxylic acid], the ED50 came out at 0.7 mg/kg.
